Values joined by “and” are separate entries in the source; they are usually repeats but may differ in a detail not shown here. Equal entries are not always repeated.
Key:
[1] = system: human breast adenocarcinoma MDA-MB-231 cell line; test: Cytotoxicity: cell growth inhibition in cultures, viable cells counted by trypan blue exclusion; assay type: cell-based; details: for inhibition at 0.04 µM / inhibition at 1 µM / inhibition at 0.1 µM / inhibition at 0.01 µM / inhibition at 0.001 µM / inhibition at 0.0001 µM / inhibition at 10 pM: Homo sapiens; for inhibition at 0.04 µM / inhibition at 1 µM / inhibition at 0.1 µM / inhibition at 0.01 µM / inhibition at 0.001 µM / inhibition at 0.0001 µM: MDA-MB-231, sodium salt in saline; for inhibition at 10 pM: MDA-MB-231, sodium salt of the compound dissolved in saline (1 mg/ml); for Cell growth inhibition % Formulation: compound/paclitaxel formulations in saline; for Cell growth inhibition % OF W/SAB / Cell growth inhibition % OF SAB/W: dried compound/paclitaxel mixed-micellar system (OF); for Cell growth inhibition % OF W/SAB: freeze-dried as water solution, reconstituted with 0.05 M sodium acetate buffer; for Cell growth inhibition % OF SAB/W: freeze-dried in 0.05 M sodium acetate buffer, reconstituted with water
Method: The cell line was propagated by cultivation in Nunclon 25 cm^2 flasks (Nunc A/S, Denmark) in Minimum Essential Medium Eagle (MEM), containing antibiotics and supplemented with 10% (v/v) fetal bovine serum (FBS) (Sigma, St. Louis, Mo., USA). The cultures were maintained in growth medium at 37° C. in a humidified atmosphere, 95% air and 5% CO2.
A suspension of tumour cells (60×10^3 cells/mL) was prepared in MEM with 5% FBS and antibiotics. Cell suspension (200 μL) was seeded in wells of Nunclon 96-microwell plates (Nunc A/S, Denmark) at a density of 12×10^3 cell/well. The solutions of the drugs to be tested were added to the cultures on day 0 or day 1 in volumes of 2 μL. In all cases the cells were incubated for 3 days.
At the end of the incubation period, adherent cells were detached by trypsinization and the number of viable cells was counted using trypan blue dye exclusion test and a hemocytometer.
All experiments were performed at least twice and the cells counts were done in triplicate for each drug concentration. Each control and test series consisted of 6-8 cultures. The results are expressed as mean cell number ±SD and the differences between control and test series were evaluated by means of Student's t-test. The cytotoxicity of each tested drug was evaluated by the extent of cell growth inhibition. The Cell growth inhibition was evaluated as follows:
Cell growth inhibition, %=- - - ×100

[2] = Solubility of compounds and formulations; assay type: physicochemical; details: for solubility in solvents: sodium salts
Method: The obtained solution can be stored for at least three months at low temperatures, without noticeable change in the properties of compound (I-VI). Moreover, the formulation retains its cytotoxic effects during prolonged storage. Before use, the solution is evaporated in vacuo to yield a waxy solid which is dissolved in saline or other commonly used vehicle for intravenous infusion to a patient. […] An ethanol solution is prepared of one of N-(all-trans-Retinoyl)-L-cysteic acid (I), N-(13-cis-Retinoyl)-L-cysteic acid (11), N-(all-trans-Retinoyl)-L-homocysteic acid (III), N-(13-cis-Retinoyl)-L-homocysteic acid (IV), N-(all-trans-Retinoyl)-L-cysteinesulfinic acid (V), or N-(13-cis-Retinoyl)-L-cysteinesulfinic acid (VI). The obtained solution is evaporated in vacuo to give waxy solid, whereupon Taxol® is added, dissolving the waxy solid. […]

[3] = final 4 × 10^−8 mol/L, day 1, three days
[4] = final 10^−6 mol/L (top of range 10^−11 M to 10^−6 M), day 1, three days
[5] = final 10^−7 mol/L, day 1, three days
[6] = final 10^−8 mol/L, day 1, three days
[7] = final 10^−9 mol/L, day 1, three days
[8] = final 10^−10 mol/L, day 1, three days
[9] = final concentration 10^−11 mol/L, day 1, three days
[10] = sodium salt in saline, final 4 × 10^−8 mol/L, day 1, three days
[11] = sodium salt in saline, final 10^−6 mol/L (top of range 10^−11 M to 10^−6 M), day 1, three days
[12] = sodium salt in saline, final 10^−6 mol/L, day 1, three days
[13] = sodium salt in saline, final 10^−7 mol/L, day 1, three days
[14] = sodium salt in saline, final 10^−8 mol/L, day 1, three days
[15] = sodium salt in saline, final 10^−9 mol/L, day 1, three days
[16] = sodium salt in saline, final 10^−10 mol/L, day 1, three days
[17] = sodium salt of the compound dissolved in saline (1 mg/ml), final concentration 10^−11 mol/L, day 1, three days

| solubility in the commercially available Taxol® preparation [2] | SMILES | inhibition at 0.04 µM [1, 3] [%] | inhibition at 1 µM [1, 4] [%] | inhibition at 0.1 µM [1, 5] [%] | inhibition at 0.01 µM [1, 6] [%] | inhibition at 0.001 µM [1, 7] [%] | inhibition at 0.0001 µM [1, 8] [%] | inhibition at 10 pM [1, 9] [%] | Cell growth inhibition % Formulation [1] | Cell growth inhibition % OF W/SAB [1] | Cell growth inhibition % OF SAB/W [1] | number of living cells [1, 10] | cell growth inhibition [1, 11] [%] | number of living cells [1, 12] | number of living cells [1, 13] | number of living cells [1, 14] | number of living cells [1, 15] | number of living cells [1, 16] | number of living cells [1, 17] | solubility in solvents [2] | also measured |
| --- | --- | --- | --- | --- | --- | --- | --- | --- | --- | --- | --- | --- | --- | --- | --- | --- | --- | --- | --- | --- | --- |
| excellent solubility | CC1=C(/C=C/C(C)=C/C=C/C(C)=C/C(=O)N[C@@H](CS(=O)O)C(=O)O)C(C)(C)CCC1 [Compound V, N-(all-trans-Retinoyl)-L-cysteinesulfinic acid] | 27.1 | 29.8 | 27.6 | 24.3 | 16.2 | 14.7 | 13.3 | close to 55% | close to 56% | close to 58% | 39.6 ± 1.75 × 10^3 | ~30 | 38.1 ± 1.86 × 10^3 | 39.3 ± 1.22 × 10^3 | 41.1 ± 2.34 × 10^3 | 45.5 ± 2.80 × 10^3 | 46.3 ± 2.49 × 10^3 | 47.1 ± 2.41 × 10^3 | soluble only in mixtures containing water |  |
| excellent solubility | CC1=C(/C=C/C(C)=C/C=C/C(C)=C\C(=O)N[C@@H](CCS(=O)(=O)O)C(=O)O)C(C)(C)CCC1 [Compound IV, N-(13-cis-Retinoyl)-L-homocysteic acid] | 29.6 | 31.9 | 31.1 | 24.9 | 17.3 | 16.1 | 14.8 | close to 60% | close to 62% | close to 63% | 37.1 ± 2.56 × 10^3 | ~35 | 35.9 ± 2.29 × 10^3 | 36.3 ± 2.08 × 10^3 | 39.6 ± 2.74 × 10^3 | 43.6 ± 3.21 × 10^3 | 44.2 ± 3.35 × 10^3 | 44.9 ± 3.02 × 10^3 | also dissolved in methanol and some methanol containing mixtures |  |
|  | CC(=O)O[C@H]1C(=O)[C@@]2(C)[C@H]([C@H](OC(=O)c3ccccc3)[C@]3(O)C[C@H](OC(=O)[C@H](O)[C@@H](NC(=O)c4ccccc4)c4ccccc4)C(C)=C1C3(C)C)[C@]1(OC(C)=O)CO[C@@H]1C[C@@H]2O [Paclitaxel, reference compound] |  |  |  |  |  |  |  |  |  |  |  |  |  |  |  |  |  |  |  | number of living cells ([1]; 8 × 10^−9 mol/L of paclitaxel (formulation: plus 4 × 10^−8 mol/L of compound, molar ratio 1:5), added day 0, three days): 15.5 ± 1.63 × 10^3 and 26.3 ± 1.96 × 10^3; cell growth inhibition ([1]; at concentrations close to the IC50 concentration): ~46%; cell growth inhibition ([1]; drug alone, 10 nM paclitaxel, added day 1, three days of cultivation, positive control of molar-ratio experiments): 46.1% and 44.3% |
| excellent solubility | CC1=C(/C=C/C(C)=C/C=C/C(C)=C\C(=O)N[C@@H](CS(=O)O)C(=O)O)C(C)(C)CCC1 [Compound VI, N-(13-cis-Retinoyl)-L-cysteinesulfinic acid] | 24.9 | 27.3 | 25.8 | 22.4 | 14 | 13.7 | 12.3 | close to 55% | close to 56% | close to 58% | 39.6 ± 2.70 × 10^3 | ~30 | 38.3 ± 2.34 × 10^3 | 39.1 ± 2.16 × 10^3 | 40.9 ± 2.88 × 10^3 | 45.3 ± 2.55 × 10^3 | 45.5 ± 2.68 × 10^3 | 46.2 ± 3.54 × 10^3 | soluble only in mixtures containing water |  |
